ChEMBL document CHEMBL3286387, “α-Tetralone derivatives as inhibitors of monoamine oxidase” (Bioorg Med Chem Lett, 2014)

Tests used:
[1] = species on record: Homo sapiens; assay: Selectivity index, ratio of IC50 for recombinant human MAO-A to IC50 for recombinant human MAO-B
[2] = molecular target: T1, Amine oxidase [flavin-containing] A (Homo sapiens, UniProt P21397); assay: Inhibition of recombinant human MAO-A using kynuramine as substrate assessed as 4-hydroxyquinoline production after 30 mins by fluorescence spectrophotometry analysis
T1 sequence (P21397 whole entry): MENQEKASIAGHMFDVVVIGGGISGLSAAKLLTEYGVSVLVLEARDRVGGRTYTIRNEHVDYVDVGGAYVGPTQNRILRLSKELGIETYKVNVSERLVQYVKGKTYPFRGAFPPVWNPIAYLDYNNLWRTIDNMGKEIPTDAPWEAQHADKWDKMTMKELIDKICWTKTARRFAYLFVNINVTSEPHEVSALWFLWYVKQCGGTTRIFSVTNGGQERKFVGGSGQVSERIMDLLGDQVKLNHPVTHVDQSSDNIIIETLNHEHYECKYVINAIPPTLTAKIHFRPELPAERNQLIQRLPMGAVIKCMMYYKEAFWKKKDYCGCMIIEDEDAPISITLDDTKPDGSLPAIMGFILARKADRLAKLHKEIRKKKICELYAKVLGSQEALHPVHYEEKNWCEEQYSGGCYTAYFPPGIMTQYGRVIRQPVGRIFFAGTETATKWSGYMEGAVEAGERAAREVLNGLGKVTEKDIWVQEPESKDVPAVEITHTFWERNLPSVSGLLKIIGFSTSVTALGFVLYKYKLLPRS

[3] = molecular target: T2, Amine oxidase [flavin-containing] B (Homo sapiens, UniProt P27338); assay: Inhibition of recombinant human MAO-B using kynuramine as substrate assessed as 4-hydroxyquinoline production after 30 mins by fluorescence spectrophotometry analysis
T2 sequence (P27338 whole entry): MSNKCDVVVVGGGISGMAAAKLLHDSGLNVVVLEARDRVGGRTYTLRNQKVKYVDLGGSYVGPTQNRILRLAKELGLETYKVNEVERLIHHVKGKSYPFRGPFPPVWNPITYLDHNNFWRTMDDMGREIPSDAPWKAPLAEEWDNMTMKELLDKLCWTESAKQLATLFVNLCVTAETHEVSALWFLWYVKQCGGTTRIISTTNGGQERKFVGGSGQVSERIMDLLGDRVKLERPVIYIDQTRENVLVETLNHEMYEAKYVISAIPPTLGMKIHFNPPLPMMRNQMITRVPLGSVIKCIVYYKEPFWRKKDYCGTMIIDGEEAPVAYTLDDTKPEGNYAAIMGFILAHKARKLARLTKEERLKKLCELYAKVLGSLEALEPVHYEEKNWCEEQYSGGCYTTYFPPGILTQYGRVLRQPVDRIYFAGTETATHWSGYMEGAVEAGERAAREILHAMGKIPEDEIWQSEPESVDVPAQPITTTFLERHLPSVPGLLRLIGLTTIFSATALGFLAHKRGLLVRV

[4] = molecular target: T1, Amine oxidase [flavin-containing] A; assay: Reversible inhibition of recombinant human MAO-A using kynuramine as substrate assessed as enzyme residual activity at 4 times IC50 incubated for 15 mins measured after 24 hrs of dialysis by fluorescence spectrophotometry analysis relative to control
[5] = molecular target: T2, Amine oxidase [flavin-containing] B; assay: Competitive inhibition of recombinant human MAO-B using kynuramine as substrate by Lineweaver-Burk plot analysis
[6] = molecular target: T2, Amine oxidase [flavin-containing] B; assay: Reversible inhibition of recombinant human MAO-B using kynuramine as substrate assessed as enzyme residual activity at 4 times IC50 incubated for 15 mins measured after 24 hrs by fluorescence spectrophotometry analysis relative to control
[7] = molecular target: T1, Amine oxidase [flavin-containing] A; assay: Reversible inhibition of recombinant human MAO-A using kynuramine as substrate assessed as enzyme residual activity at 4 times IC50 incubated for 15 mins measured after 24 hrs by fluorescence spectrophotometry analysis relative to control
[8] = molecular target: T1, Amine oxidase [flavin-containing] A; assay: Competitive inhibition of recombinant human MAO-A using kynuramine as substrate by Lineweaver-Burk plot analysis

SMILES	Ratio IC50 [1]	IC50 [2] [nM]	IC50 [3] [nM]	Activity [4] [%]	Ki [5] [nM]	Activity [6] [%]	Activity [7] [%]	Ki [8] [nM]
O=C1CCCc2cc(OCc3ccc(C(F)(F)F)cc3)ccc21	91	547	6					
O=C1CCCc2cc(OCc3ccc(F)cc3)ccc21		266						
O=C1CCCc2cc(OCc3cccc(Br)c3)ccc21	24	212	9					
O=C1CCCc2cc(OCc3ccccc3)ccc21	13	792	63					
N#Cc1ccc(COc2ccc3c(c2)CCCC3=O)cc1	60	656	11					
O=C1CCCc2cc(OCc3cccc(F)c3)ccc21	23	392	17					
O=C1CCCc2cc(OCc3ccc(I)cc3)ccc21	346	2250	6.5					
O=C1CCCc2cc(OCc3cccc(Cl)c3)ccc21	14	207	15					
O=C1CCCc2cc(OCc3ccc(Cl)cc3)ccc21		238						
C#CCN(C)Cc1ccccc1 [PARGYLINE]				1.6				
O=C1CCCc2cc(OCCc3ccccc3)ccc21	40	1320	33					
Cc1ccc(COc2ccc3c(c2)CCCC3=O)cc1	190	2090	11					
O=C1CCCc2cc(OCCCc3ccccc3)ccc21	36	1160	32					
O=C1CCCc2cc(O)ccc21	0.7	43800	66400					
O=C1CCCc2ccccc21	0.8	14800	18600					
O=C1CCCc2cc(OCc3cccc(I)c3)ccc21	287	1290	4.5		7.1	23		
N#Cc1cccc(COc2ccc3c(c2)CCCC3=O)c1	0.3	24	78	108			44	25
O=C1CCCc2cc(OCc3ccc(Br)cc3)ccc21	35	311	9					
